Laboratory results reported in EP4707280A1, “1,4-CINEOLE DERIVATIVE AND INTERMEDIATE THEREOF, HERBICIDE CONTAINING SAID DERIVATIVE AS ACTIVE INGREDIENT, METHOD FOR USING HERBICIDE, AND METHOD FOR PREPARING AGROCHEMICAL COMPOSITION” (HOKKO CHEMICAL INDUSTRY CO., LTD., priority 2023, dated 2024).

Experiments:
Type in all cases: in vivo
[1] = test system: Chenopodium album; assay: Test Example 3: herbicidal effect test by soil application in upland field; details: 120 g per 10 ares, sprayed one day after sowing, 14 days after application, read-out: weed inhibition rate
How it was run: (§1)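 Pre-emergence test: seeds mixed into top 1 cm of alluvial loam upland soil in pots; emulsifiable concentrate diluted in water sprayed on soil one day after sowing at 100 L/10 a, 120 g a.i./10 a. Weed inhibition rate (%) scored at 14 days, in duplicate.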

[2] = test system: Monochoria vaginalis; assay: Test Example 6: herbicidal effect test by application during growth period of paddy rice (low dose); details: Pontederia vaginalis; 7.5 g per 10 ares; applied seven days after sowing, flooded pots; 14 days after application; read-out: weed inhibition rate
How it was run: (§2)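 Paddy-soil pots, flooded ~3 cm after sowing weed seeds at 0-1 cm depth, greenhouse-grown. Seven days after sowing, diluted emulsifiable concentrate applied by dropper at 7.5 g active ingredient per 10 ares. Weed inhibition rate (%) scored 14 days after application, in duplicate.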

[3] = test system: Scirpus juncoides; assay: as above; details: Schoenoplectiella juncoides; 7.5 g per 10 ares; applied seven days after sowing, flooded pots; 14 days after application; read-out: weed inhibition rate
How it was run: as §2

[4] = test system: Monochoria vaginalis; assay: Test Example 2: herbicidal effect test by application during growth period of paddy rice; details: Pontederia vaginalis; 120 g per 10 ares; applied seven days after sowing, flooded pots; 14 days after application; read-out: weed inhibition rate
How it was run: (§3)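 Herbicidal effect was scored 14 days after treatment, in duplicate per concentration. Weeds sown 0–1 cm deep in puddled, fertilized paddy soil under about 3 cm of standing water received a water-diluted emulsifiable concentrate by dropper 7 days post-sowing, at 120 g a.i. per 10 ares.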

[5] = test system: Scirpus juncoides; assay: as above; details: Schoenoplectiella juncoides; 120 g per 10 ares; applied seven days after sowing, flooded pots; 14 days after application; read-out: weed inhibition rate
How it was run: as §3

[6] = test system: Echinochloa crus-galli var. formosensis; assay: as above; details: Echinochloa crus-galli; 120 g per 10 ares; applied seven days after sowing, flooded pots; 14 days after application; read-out: weed inhibition rate
How it was run: as §3

[7] = test system: Echinochloa crus-galli var. formosensis; assay: Test Example 5: herbicidal effect test by soil application in paddy rice (low dose); details: Echinochloa crus-galli, soil, 336 h; 7.5 g per 10 ares; applied immediately after sowing, flooded pots; 14 days after application; read-out: weed inhibition rate
How it was run: (§4)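 Dose of 7.5 g a.i. per 10 ares, applied by dropper as diluted emulsifiable concentrate to flooded (~3 cm) paddy pots immediately after sowing seeds at 0–1 cm. Kept in a glass greenhouse; duplicate pots rated at 14 days post-application.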

[8] = test system: Digitaria ciliaris; assay: Test Example 7: herbicidal effect test by soil application in upland field (low dose); details: Digitaria ciliaris, 7.5 g per 10 ares, sprayed one day after sowing, 14 days after application, read-out: weed inhibition rate
How it was run: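 Pre-emergence soil treatment: 7.5 g a.i. per 10 a applied as water-diluted emulsifiable concentrate (100 L/10 a) to soil surface one day post-sowing in alluvial loam. Inhibition (%) assessed at 14 days, duplicate pots per concentration.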

[9] = test system: Monochoria vaginalis; assay: Test Example 5: herbicidal effect test by soil application in paddy rice (low dose); details: Pontederia vaginalis, 336 h, 7.5 g per 10 ares, applied immediately after sowing, flooded pots, 14 days after application, read-out: weed inhibition rate
How it was run: as §4

[10] = test system: Scirpus juncoides; assay: as above; details: Schoenoplectiella juncoides, 336 h, 7.5 g per 10 ares, applied immediately after sowing, flooded pots, 14 days after application, read-out: weed inhibition rate
How it was run: as §4

[11] = test system: Amaranthus viridis; assay: Test Example 3: herbicidal effect test by soil application in upland field; details: Amaranthus viridis, 120 g per 10 ares, sprayed one day after sowing, 14 days after application, read-out: weed inhibition rate
How it was run: as §1

Cc1ccccc1CO[C@@H]1C[C@]2(C(C)C)O[C@@]1(C)C[C@@H]2F [1-2, (1R,2S,4S,5R)-2-fluoro-1-isopropyl-4-methyl-5-((2-methylbenzyl)oxy)-7-oxabicyclo[2.2.1]heptane]
≥ 80%: inhibition at 1200 g/ha [1] | inhibition at 75 g/ha [2] | inhibition at 75 g/ha [3] | inhibition at 1200 g/ha [4] | inhibition at 1200 g/ha [5] | inhibition at 1200 g/ha [6] | inhibition at 75 g/ha [7] | inhibition at 75 g/ha [8] | inhibition at 75 g/ha [9]

CC(C)[C@]12C[C@@H](OCc3ccccc3F)[C@](C)(C[C@@H]1F)O2 [1-5, (1R,2S,4S,5R)-2-fluoro-5-((2-fluorobenzyl)oxy)-1-isopropyl-4-methyl-7-oxabicyclo[2.2.1]heptane]
≥ 80%: inhibition at 1200 g/ha [1] | inhibition at 75 g/ha [2] | inhibition at 75 g/ha [3] | inhibition at 1200 g/ha [4] | inhibition at 1200 g/ha [5] | inhibition at 1200 g/ha [6] | inhibition at 75 g/ha [7] | inhibition at 75 g/ha [8] | inhibition at 75 g/ha [9] | inhibition at 75 g/ha [10]

CC(C)[C@]12C[C@@H](OCc3c(F)cccc3F)[C@](C)(C[C@@H]1F)O2 [1-7, (1S,2R,4R,5S)-2-((2,6-difluorobenzyl)oxy)-5-fluoro-4-isopropyl-1-methyl-7-oxabicyclo[2.2.1]heptane]
≥ 80%: inhibition at 1200 g/ha [11] | inhibition at 1200 g/ha [1] | inhibition at 75 g/ha [2] | inhibition at 1200 g/ha [4] | inhibition at 1200 g/ha [5] | inhibition at 1200 g/ha [6] | inhibition at 75 g/ha [7] | inhibition at 75 g/ha [8] | inhibition at 75 g/ha [10]

CC(C)[C@]12C[C@@H](OCc3ccccc3F)[C@](C)(C[C@@H]1O)O2 [1-30, (1R,2S,4S,5R)-5-((2-fluorobenzyl)oxy)-1-isopropyl-4-methyl-7-oxabicyclo[2.2.1]heptan-2-ol]
≥ 80%: inhibition at 1200 g/ha [11] | inhibition at 1200 g/ha [1] | inhibition at 75 g/ha [3] | inhibition at 1200 g/ha [4] | inhibition at 1200 g/ha [5] | inhibition at 1200 g/ha [6] | inhibition at 75 g/ha [7] | inhibition at 75 g/ha [8] | inhibition at 75 g/ha [10]

CC(C)[C@]12C[C@@H](OCc3c(F)cccc3F)[C@](C)(C[C@@H]1O)O2 [1-41, (1R,2S,4S,5R)-5-((2,6-difluorobenzyl)oxy)-1-isopropyl-4-methyl-7-oxabicyclo[2,2,1]heptan-2-ol]
≥ 80%: inhibition at 1200 g/ha [11] | inhibition at 1200 g/ha [1] | inhibition at 75 g/ha [3] | inhibition at 1200 g/ha [4] | inhibition at 1200 g/ha [5] | inhibition at 1200 g/ha [6] | inhibition at 75 g/ha [7] | inhibition at 75 g/ha [8] | inhibition at 75 g/ha [10]

Cc1ccccc1CO[C@@H]1C[C@]2(C(C)C)O[C@@]1(C)CC2C (stereo partly drawn) [1-83, (1S,2R,4R)-4-isopropyl-1,5-dimethyl-2-((2-methylbenzyl)oxy)-7-oxabicyclo[2.2.1]heptane]
≥ 80%: inhibition at 1200 g/ha [1] | inhibition at 75 g/ha [2] | inhibition at 75 g/ha [3] | inhibition at 1200 g/ha [4] | inhibition at 1200 g/ha [5] | inhibition at 1200 g/ha [6] | inhibition at 75 g/ha [7] | inhibition at 75 g/ha [8] | inhibition at 75 g/ha [9] | inhibition at 75 g/ha [10]

CC(C)[C@]12C[C@@H](OCc3ccccc3F)[C@](C)(C[C@@H]1OCc1ccccc1F)O2 [1-603, (1S,2R,4R,5S)-2,5-bis[(2-fluorophenyl)methoxy]-1-methyl-4-isopropyl-7-oxabicyclo[2.2.1]heptane]
≥ 80%: inhibition at 1200 g/ha [1] | inhibition at 75 g/ha [2] | inhibition at 1200 g/ha [4] | inhibition at 1200 g/ha [5] | inhibition at 1200 g/ha [6] | inhibition at 75 g/ha [7] | inhibition at 75 g/ha [9]

Cc1ccccc1CO[C@@H]1C[C@]2(C(C)C)O[C@@]1(C)CC2=O [2-3, (1R,4S,5R)-1-isopropyl-4-methyl-5-((2-methylbenzyl)oxy)-7-oxabicyclo[2.2.1]heptan-2-one]
≥ 80%: inhibition at 1200 g/ha [1] | inhibition at 75 g/ha [2] | inhibition at 75 g/ha [3] | inhibition at 1200 g/ha [4] | inhibition at 1200 g/ha [5] | inhibition at 1200 g/ha [6] | inhibition at 75 g/ha [7] | inhibition at 75 g/ha [8] | inhibition at 75 g/ha [9] | inhibition at 75 g/ha [10]

CC(C)[C@]12C[C@@H](OCc3ccccc3Cl)[C@](C)(CC1=O)O2 [2-11, (1R,4S,5R)-5-((2-chlorobenzyl)oxy)-1-isopropyl-4-methyl-7-oxabicyclo[2.2.1]heptan-2-one]
≥ 80%: inhibition at 1200 g/ha [11] | inhibition at 1200 g/ha [1] | inhibition at 1200 g/ha [4] | inhibition at 1200 g/ha [5] | inhibition at 1200 g/ha [6] | inhibition at 75 g/ha [7] | inhibition at 75 g/ha [8] | inhibition at 75 g/ha [10]

CC(C)[C@]12C[C@@H](OCc3c(F)cccc3F)[C@](C)(CC1=O)O2 [2-20, (1R,4S,5R)-5-((2,6-difluorobenzyl)oxy)-1-isopropyl-4-methyl-7-oxabicyclo[2.2.1]heptan-2-one]
≥ 80%: inhibition at 1200 g/ha [11] | inhibition at 1200 g/ha [1] | inhibition at 1200 g/ha [4] | inhibition at 1200 g/ha [5] | inhibition at 1200 g/ha [6] | inhibition at 75 g/ha [7] | inhibition at 75 g/ha [8] | inhibition at 75 g/ha [9] | inhibition at 75 g/ha [10]

CC(C)[C@]12C[C@@H](OCc3ccc(F)cc3)[C@](C)(CC1=O)O2 [2-349, (1R,4S,5R)-5-((4-fluorobenzyl)oxy)-1-isopropyl-4-methyl-7-oxabicyclo[2.2.1]heptan-2-one]
≥ 80%: inhibition at 1200 g/ha [11] | inhibition at 1200 g/ha [1] | inhibition at 1200 g/ha [4] | inhibition at 1200 g/ha [6] | inhibition at 75 g/ha [7] | inhibition at 75 g/ha [8]
